# According to patent publication US12263144B2, “Methods of treating IgA nephropathy with thiol-containing molecules” (Accubit LLC—Biotechnology, priority 2020, dated 2025):
# Tests used:
# rat poly-rIgA = experiment: Nonreducing SDS-PAGE analysis of rat poly-rIgA after pretreatment; assay type: biochemical; settings: cysteamine 0 to 10 mM; TCEP 10 mM; untreated poly-IgA >250 kDa
# Experimental: Proteins in sample buffer (Bio-Rad Laboratories, Hercules, CA, USA) with or without TCEP (for reducing or nonreducing condition, respectively) were resolved by 4-12% SDS-PAGE (Bio-Rad Laboratories). IgA bands were subsequently visualized either by staining with GelCode Blue (Thermo Fisher Scientific), or by Western blotting on PVDF membrane. For Western blotting, 5% non-fat milk was used in blocking for one hour at room temperature. The membrane was then incubated with mouse anti-Histag antibody (Thermo Scientific), or HRP-conjugated goat anti-rat IgA α-chain antibody (Cat. ab97185, Abcam, UK), or goat anti-human IgA HRP antibody (Cat: 2050-05, SouthernBiotech) for detecting rat or human IgA (Fc), respectively. The membrane was developed using the Clarity™ ECL substrate (Bio-Rad Laboratories, CA, USA).
# To further ascertain the mechanism-of-action of cysteamine in targeting disulfides, nonreducing SDS-PAGE analysis was performed of rat poly-rIgA (FIG. 5, part D). The samples were pretreated with 0 to 10 mM cysteamine, or 10 mM TCEP as positive control. As expected, poly-IgA appeared as >250 kDa bands on SDS-PAGE. Dose-dependent response of poly-rIgA to cysteamine was evident, with majority of the protein running at ˜64 kDa of disaggregated monomers.
# human IgA1 (poly-IgA1) = target: T1, human IgA1 (poly-IgA1) (Homo sapiens, UniProt P01876); experiment: SEC of native human IgA1 treated ex vivo; assay type: biochemical; settings: IgA1 from pooled plasma of IgA nephropathy patients, different concentrations, FIG. 5 C
# T1 construct: human IgA1 whole molecule was purified from pooled plasma of IgA nephropathy patients; from tissue
# T1 sequence (P01876 1-353 isoform P01876-1): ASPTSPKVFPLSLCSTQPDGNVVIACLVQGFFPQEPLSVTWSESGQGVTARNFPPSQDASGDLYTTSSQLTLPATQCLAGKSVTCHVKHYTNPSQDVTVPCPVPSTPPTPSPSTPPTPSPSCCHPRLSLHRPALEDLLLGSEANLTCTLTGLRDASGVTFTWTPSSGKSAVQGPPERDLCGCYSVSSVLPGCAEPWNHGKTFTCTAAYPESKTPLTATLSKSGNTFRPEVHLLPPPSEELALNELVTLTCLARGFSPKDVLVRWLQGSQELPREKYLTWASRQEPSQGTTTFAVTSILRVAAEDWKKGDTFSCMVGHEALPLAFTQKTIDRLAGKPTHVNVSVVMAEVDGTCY
# Text: IgA1 from IgA nephropathy patient sera was purified by Jacalin (Thermo Scientific, USA)-directed affinity chromatography. Poly-IgA1 contents were further enriched via running Superdex 200 Increase gel filtration molecular sieve (GE Biosciences) and collecting high-molecular weight fractions from an AKTA protein purification system (GE Biosciences). Human serum from healthy donors was purchased from Sigma-Aldrich and total IgA1 was also purified by running Jacalin-directed chromatography. Purified total IgA1 was used for injecting mice.
# The overall complex size of IgA aggregates was determined either by size-exclusion chromatography (SEC: Superdex 200 Increase 10/300 by GL Cytiva), or by SDS-PAGE. For evaluating the involvement of intermolecular disulfide connectivity in IgA complexes, IgA samples were treated with either reducing agents, such as DTT, TCEP or reduced glutathione (Sigma), or interventional drugs, such as cysteamine (Sigma), WR-1065 (Sigma) and N-Acetyl-L-cysteine (VWR Chemicals) in phosphate-buffered saline (PBS) pH7.4. Before running on SEC, samples were treated with the drugs at indicated concentrations at 37° C. for one hour.
# In the meantime, the SEC column was also equilibrated with PBS supplemented with the reducing agent at the same concentration. For running SEC, 100 μL of the recombinant IgA (concentration varies between 1 mg/mL and 8 mg/mL) or purified native human IgA1 (˜1 mg/mL) was loaded to the column and UV absorption was recorded following elution. Recombinant IgA typically formed two elution peaks: a minor peak of ˜800 kDa poly-rIgA followed by a major peak of ˜170 kDa of monomeric rIgA. The ratios between poly-rIgA and mono-rIgA were calculated as between the corresponding areas under the curve (AUC), and the treatment effect of the thiol agents was judged by the reduction of the poly-rIgA level with a compensatory increase of the mono-rIgA content.
# In addition, human IgA1 whole molecule was purified from pooled plasma of IgA nephropathy patients and subjected the sample to different concentrations of cysteamine (FIG. 5, part C). […]
smiles,measurement,setting,value
NCCS [cysteamine],molecular weight of protein band after pretreatment (nonreducing SDS-PAGE),rat poly-rIgA,~64 kDa
same,poly-IgA1 amount (SEC),human IgA1 (poly-IgA1),reduced the amounts of poly-IgA1
